The experiment deals with C57BL/6 mice, intracerebral ependymoblastoma, median survival T/C. The experiment in a line: NCI In Vivo Anticancer Drug Screen. Data for tumor model Ependymoblastoma (intracerebral) in C57BL/6 mice. Conditions: endpoint: median survival time, higher = longer survival. As for the experimental part: The antitumor activity of compounds was measured in mice bearing transplantable tumors. Survival or tumor size were measured and the results are expressed as the measurement made in the treated group (T) divided by the measurement made in the vehicle treated control group (C). The tumor model used in this assay is Ependymoblastoma (intracerebral) in C57BL/6 mice

Where “and” joins values, the source holds several entries; their conditions need not be identical. Equal entries are not always repeated. Toxic doses and inconclusive results are not listed.

For `COc1cccc2c1C(=O)c1c(O)c3c(c(O)c1C2=O)C[C@@](O)(/C(C)=N/NC(=O)c1ccccc1)C[C@@H]3OC1CC(N)C(O)C(C)O1` (stereo partly drawn), the T/C (dose: 1.0 mg/kg/injection, schedule: Q01DX009 (ip), vehicle: saline) was 108 % of control; the T/C (dose: 2.0 mg/kg/injection, schedule: Q01DX005 (ip), vehicle: saline with Tween-80) was 100 % of control; the T/C (dose: 2.0 mg/kg/injection, schedule: Q01DX009 (ip), vehicle: saline) was 99 % of control; the T/C (dose: 4.0 mg/kg/injection, schedule: Q01DX005 (ip), vehicle: saline with Tween-80) is 103 % of control; the T/C (dose: 4.0 mg/kg/injection, schedule: Q01DX009 (ip), vehicle: saline) is 113 % of control.

Consider `O=NN(CCCl)C(=O)NC1CCCCC1`, for which the T/C (dose: 8.0 mg/kg/injection, schedule: Q01DX001 (ip), vehicle: Klucel (hydroxypropylcellulose) (HPC)) is 106 % of control; the T/C (dose: 8.0 mg/kg/injection, schedule: Q01DX005 (oral), vehicle: Klucel (hydroxypropylcellulose) (HPC)) is 155 % of control; the T/C (dose: 16.0 mg/kg/injection, schedule: Q01DX001 (ip), vehicle: Klucel (hydroxypropylcellulose) (HPC)) was 105 % of control; the T/C (dose: 16.0 mg/kg/injection, schedule: Q01DX001 (oral), vehicle: Klucel (hydroxypropylcellulose) (HPC)) was 111 % of control; the T/C (dose: 16.0 mg/kg/injection, schedule: Q01DX005 (oral), vehicle: Klucel (hydroxypropylcellulose) (HPC)) was 311 % of control; the T/C (dose: 32.0 mg/kg/injection, schedule: Q01DX001 (ip), vehicle: Klucel (hydroxypropylcellulose) (HPC)) was 98 % of control and 111 % of control. Further, the T/C (dose: 32.0 mg/kg/injection, schedule: Q01DX001 (oral), vehicle: Klucel (hydroxypropylcellulose) (HPC)) is 113 % of control; the T/C (dose: 32.0 mg/kg/injection, schedule: Q01DX005 (oral), vehicle: Klucel (hydroxypropylcellulose) (HPC)) was 310 % of control; the T/C (dose: 64.0 mg/kg/injection, schedule: Q01DX001 (ip), vehicle: Klucel (hydroxypropylcellulose) (HPC)) was 104 % of control and 106 % of control; the T/C (dose: 64.0 mg/kg/injection, schedule: Q01DX001 (oral), vehicle: Klucel (hydroxypropylcellulose) (HPC)) was 113 % of control; the T/C (dose: 128.0 mg/kg/injection, schedule: Q01DX001 (ip), vehicle: Klucel (hydroxypropylcellulose) (HPC)) is 95 % of control; the T/C (dose: 128.0 mg/kg/injection, schedule: Q01DX001 (oral), vehicle: Klucel (hydroxypropylcellulose) (HPC)) was 100 % of control. Moreover, the T/C is 108 % of control (dose: 256.0 mg/kg/injection, schedule: Q01DX001 (ip), vehicle: Klucel (hydroxypropylcellulose) (HPC)); 104 % of control (dose: 256.0 mg/kg/injection, schedule: Q01DX001 (oral), vehicle: Klucel (hydroxypropylcellulose) (HPC)); 95 % of control (dose: 512.0 mg/kg/injection, schedule: Q01DX001 (ip), vehicle: Klucel (hydroxypropylcellulose) (HPC)); 97 % of control (dose: 512.0 mg/kg/injection, schedule: Q01DX001 (oral), vehicle: Klucel (hydroxypropylcellulose) (HPC)).

For `Nc1nc(=S)c2ncn(C3OC(COC(=O)c4ccc(Cl)cc4)C(OC(=O)c4ccc(Cl)cc4)C3OC(=O)c3ccc(Cl)cc3)c2[nH]1` (stereo not drawn), the T/C was 96 % of control (dose: 18.75 mg/kg/injection, schedule: Q01DX005 (ip), vehicle: Klucel (hydroxypropylcellulose) (HPC)) and 87 % of control (dose: 37.5 mg/kg/injection, schedule: Q01DX005 (ip), vehicle: Klucel (hydroxypropylcellulose) (HPC)).

The values above are taken from PubChem BioAssay AID222 (DTP/NCI, 2004).
